Results reported in patent publication US11376271B1, “Methods of ameliorating the effects of alcoholic liver damage” (FULGENT LIFE INC., priority 2021, dated 2022).

How the values were obtained:
male C57BL/6J mice [1] = assay: Loss of righting reflex (LORR) test; type: in vivo; conditions: 500 mg/kg intragastric 15 min prior to 8 ml/kg ethanol
Source text: Alcohol acts on the central nervous system, causing various behavioral and/or cognitive problems, e.g., loss of righting reflex (LORR). […] LORR is defined as the phenomenon that mice cannot correct themselves three times within 30 seconds after alcohol intake. LORR latency is defined as the time from drinking to occurrence of LORR, and LORR duration is defined as the time from occurrence to recovery of LORR.
Fisher's exact probability test was used to analyze the loss of righting reflex (LORR) in the mice. […] The data representing LORR latency and duration are expressed as mean±SD (n=10); *p<0.05 vs alcohol group.

male C57BL/6J mice [2] = assay: Tissue NAD+ content after intraperitoneal injection; type: in vivo; conditions: 4 hours
Experimental: In the below in vivo assays, C57BL/6J male mice (The Jackson Laboratory) (40 days of age) were used. They were kept under standard laboratory conditions with a temperature of 22±1° C., dark/light cycles of 12/12 h, and relative humidity of 55±5%. All animals had free access to food and water, except for indicated fasting periods (and where not indicated for fasting periods of 2 hours before administration).
[…] Specifically, ten 8-week-old male C57BL/6J mice (The Jackson Laboratory) were kept in polycarbonate cages under a 12-h light/dark cycle with free access to food and water. […] Four hours later, the blood samples were collected by cardiac puncture and the mice were executed. Liver, brain, muscle, and adipose tissues were collected, instantly frozen in liquid nitrogen, and then stored at −80° C. until performance of the NAD+ analyses. […] Four hours later, the mice were killed and tissue samples were collected. All animal studies were performed according to the Guidelines for the Care and Use of Experimental Animals. For this NAD+ assay, about 100 mg of frozen tissue was crushed in liquid nitrogen and ultrasonically homogenized in 7% perchloric acid, and then the solution was neutralized and subjected to the NAD+ determination described here.
Data are indicated as mean±SD.

AML12 cells = assay: NAD+/NADH ratio in AML12 cells; conditions: 1 mM, 6 h, vs control
male C57BL/6J mice [3] = assay: Liver MDA and SOD after acute alcohol ingestion; type: in vivo; conditions: 500 mg/kg intragastric 15 min prior to 8 ml/kg ethanol; liver 6 h after alcohol
Experimental: Six hours after treatment with alcohol, liver tissues were taken for determination of MDA and SOD. Liver samples were prepared with homogenization in cold isotonic saline. The homogenate (10%, w/v) was centrifuged at 4500 g for 10 minutes and the supernatant was used for biochemical analysis. The MDA, SOD and TG levels were determined with commercial kits (Abcam, #ab118970; Thermofisher, #EIASODC and Abcam, ab65336) according to the manufacturer's instructions. The results were normalized to the total protein determined by BCA Protein Assay Kit (Abcam, #ab102536) according to the manufacturer's instructions.

[4] = test system: C2C12, Neuro2a and AML12 cells; assay: Toxicity: total cell number / trypan blue count after 24 h; type: cell-based; conditions: 1 mM
Experimental: The sharp increase of NAD+ concentration indicates a possible toxicity to cells. To assess this toxicity, C2C12, Neuro2a and AML12 cells were treated with 1 mM NADH for 24 hours, and then the total cell numbers were measured. […] The cells were stained with trypan blue and then counted with a hemocytometer. […] The Annexin V/PI staining kit and Caspases3/7/SYTOX dead cell staining kit (Life Technologies) were used and cells were counted with a BD FACSCelesta™ flow cytometer. The quadrants of apoptotic cells, necrotic cells and living cells were identified and quantified according to the manufacturer's instructions.
To examine apoptotic markers, AML12 cells were stained for Annexin V and Caspase 3/7, and cells were counted with a flow cytometer. […] Quadrants with live cells (brown), necrotic cells (gray) and apoptotic cells (blue) were quantified.

hepatocyte AML12 cells = assay: NADH dose-response and time course of NAD+ levels in AML12 cells; type: cell-based
Experimental: Also, cells were cultured as follows.
A dose-response curve was also determined for hepatocyte AML12 cells. These cells were treated with rising concentrations of NADH for 3 h. […] (n=3). *, p<0.01; **, p<0.001 vs Control.
Time course studies for NADH action were also carried out. AML12 cells were incubated with NADH for various incubation times (0-12 hr) and then harvested, and the NAD+ levels were assessed. […] (n=3). *, p<0.01; **, p<0.001 vs Control.

male C57BL/6J mice [5] = assay: Plasma AST and ALT in acute alcohol-induced hepatotoxicity; type: in vivo
Experimental: Liver marker enzymes in plasma, such as aspartate transaminase (AST) and alanine aminotransferase (ALT), are known as sensitive biochemical markers of early liver damage. […] Six hours after treatment with alcohol, blood samples were taken to detect biochemical indexes. […] The control group was given the same amount of normal saline in place of the ethanol. […] The plasma levels of AST and ALT were determined by collecting blood samples in an anti-coagulant test tube and centrifuging at 1500 rpm for 10 minutes to attain plasma. The plasma AST and ALT activity was determined with a commercial kit (from Sigma-Aldrich) based on the manufacturer's instructions.

[6] = test system: mammalian cell lines (insulinogenic (MING), neuronlike (LN229), muscle-like (C2C12), and normal hepatocyte (AML12) cells); assay: NAD+ levels in mammalian cell lines treated with NADH, NRH or NMN; conditions: 1 mM, 3 h; all cell lines
Experimental: Also, cells were cultured as follows. LN229, Neuro2a, and C2C12 cells were grown in Dulbecco's modified Eagle's medium (DMEM) supplemented with 10% fetal bovine serum (FBS), 100 units/ml penicillin, and 100 μg/ml streptomycin. […] AML12 cells were cultured in a 1:1 mixture of DMEM high glucose/Ham's F-12 with I-glutamine and supplemented with 10% FCS, 15 mM HEPES, 40 ng/ml dexamethasone, 0.005 mg/ml human recombinant insulin, 5 ng/ml sodium selenite and 0.005 mg/ml transferrin (Sigma Aldrich).
The cells were seeded in 6-well plates until they reached approximately 80% confluence. […] The number of cells was counted by hemocytometer and trypan blue. The harvested cells were then pelleted at 3000×g for 3 min. After eliminating the residual medium, the cells were lysed with 7% perchloric acid to preserve NAD+, and then neutralized with NaOH (2 M) and K2HPO4 (500 mM).

[7] = 500 mg/kg intragastric 30 min prior to 8 ml/kg ethanol (40% w/v), blood 6 h after alcohol
[8] = 40% ethanol every 24 h for 3 days, then 500 mg/kg every day for three days

NC(=O)C1=CN([C@@H]2O[C@H](COP(=O)(O)OP(=O)(O)OC[C@H]3O[C@@H](n4cnc5c(N)ncnc54)C(O)C3O)C(O)C2O)C=CC1 (stereo partly drawn) [NADH, nicotinamide adenine dinucleotide (NAD)+hydrogen (H)]
LORR duration relative to the model group (male C57BL/6J mice [1]): one third
LORR duration vs model group (male C57BL/6J mice [1]): decrease
LORR latency vs model group (male C57BL/6J mice [1]): prolonged
average LORR latency relative to the model group (male C57BL/6J mice [1]): 4 times
share of mice that had a righting reflex after drinking alcohol (male C57BL/6J mice [1]): less than half
LORR rate vs model group (male C57BL/6J mice [1]; model group 100%): decrease
average LORR latency (male C57BL/6J mice [1]; model group 14.76 minutes): 60.24 min
LORR duration (male C57BL/6J mice [1]; model group about 798.68 minutes): 265.00 min
increase of the concentration of NAD+ in the liver (male C57BL/6J mice [2]; 250 mg/kg intraperitoneal): 680%
NAD+-promoting effect in skeletal muscle (male C57BL/6J mice [2]; 1000 mg/kg intraperitoneal): lowest
content of NAD+ in blood, brain and fat (male C57BL/6J mice [2]; 1000 mg/kg intraperitoneal): increased several times
increase of NAD+ content in liver (male C57BL/6J mice [2]; 1000 mg/kg intraperitoneal): more than 7 times
NAD+/NADH ratio (AML12 cells): significantly increase
MDA content in the liver (male C57BL/6J mice [3]): significantly reduce
SOD activity in the liver (male C57BL/6J mice [3]): increase
Trypan blue positive cells [4]: less than 5%
loss of cultured cells (total cell number) [4]: no obvious loss
concentration of NAD+ relative to the control group (hepatocyte AML12 cells; 50 μM NADH, 3 h): approximately 4 times
concentration of NAD+ relative to the untreated control group (saturation) (hepatocyte AML12 cells; 500 μM NADH, 3 h): 10 times
time after which full NAD+ increasing effects were present (hepatocyte AML12 cells; 1 mM NADH): 3 h
time at which NAD+ concentration-increasing effects appeared (hepatocyte AML12 cells; 1 mM NADH): 0.5 h
NAD+ after 12 hours of treatment (hepatocyte AML12 cells; 1 mM NADH, 12 h): remained at a high concentration
plasma ALT level, pre-treatment (male C57BL/6J mice [5]; [7]): significantly reduce
plasma AST level, pre-treatment (male C57BL/6J mice [5]; [7]): significantly reduce
plasma ALT level, treatment after alcohol exposure (male C57BL/6J mice [5]; [8]): significantly reduce
plasma AST level, treatment after alcohol exposure (male C57BL/6J mice [5]; [8]): significantly reduce
induced NAD+ levels compared with NMN [6]: much higher than those induced by NMN
